Test results as given in article PMC10746103, “Development of a HPLC-MS/MS Method to Assess the Pharmacokinetics and Tumour Distribution of the Dimethylarginine Dimethylaminohydrolase 1 Inhibitors ZST316 and L-257 in a Xenograft Model of Triple-Negative Breast Cancer in Mice” (Molecules, 2023).
pKi: −log10 of the molar value. Values joined by “and” are separate entries in the source; they are usually repeats but may differ in a detail not shown here. Equal entries are not always repeated. “Also recorded” adds a separate entry of the source.

Experiments:
[1] = Plasma pharmacokinetics of ZST316 and L-257 after intraperitoneal ZST316 in MDA-MB-231 xenograft mice (HPLC-MS/MS); type: in vivo, SCID mice
Description: (§1) Six-week-old female severe combined immunodeficiency disease (SCID) mice (n = 24; Charles River Laboratories Italia S.r.L., Calco, Lecco, Italy), were housed under rigorous standards and handled under pathogen-free conditions in the Animal Care Facilities of the Mario Negri Institute for Pharmacological Research (Milan, Italy).
(§2) Two ×10^6 (in 10 μL) MDA-MB-231 TNBC cells were transplanted into the mammary fat pad. Tumour growth was regularly monitored with a calliper and treatment with ZST316 was given when the tumour volume reached 400–500 mm^3. Mice received either a single dose (acute treatment) or a daily dose of ZST316 30 mg/Kg intraperitoneally for five days (chronic treatment).
(§3) Plasma and tumour tissue (n = 3 mice/each time point) were sampled at 1, 8 and 24 h after treatment (on day 5 for the chronic treatment). To collect plasma, mice were anesthetized by isoflurane, the blood was drained from the retro-orbital plexus into heparinised tubes and centrifuged for 10 min at 4000× g at 4 °C. Tumours were collected and immediately frozen. Plasma and tumour samples were stored at −20 °C until analysis.
To assay ZST316 and L-257, 10 μL of IS (ZST152 WS: 500 ng/mL) were added to 100 μL of study plasma samples, standards, and QCs in a polypropylene tube. The samples were then added with 10 μL of NH4COOH 50 mM, mixed and added with 400 μL CH3OH:0.1% HCOOH, vortex mixed again and centrifuged at 13,200 rpm for 10 min at 4 °C. The supernatant was transferred to a 1.5 mL Eppendorf tube, dried under nitrogen flow and reconstituted with 100 μL of mobile phase (MP) A:B (1:1, v/v). Finally, the samples were centrifuged at 13,200 rpm for 10 min at 4 °C and the supernatant transferred into vials for HPLC-MS/MS analysis.
(§4) Reversed-phase chromatography was performed under gradient conditions with separation on a HILIC column, C18, 3 μm, 100 A, 2.1 × 150 mm, Waters (Milford, MA, USA), coupled with a 3 μm, 3.9 × 5.0 mm guard column of the same material at the flow rate of 0.2 mL/min. Gradient features were: 10% mobile phase (MP) A (NH4HCO2 10 mM, 10% CH3CN, 0.1% HCOOH) and 90% MP B (CH3CN, 0.1% HCOOH) as initial constant condition; then to 90% MP A in 6 min and constant condition for 1.5 min. Return to start condition in 0.5 min and conditioning for 5.5 min. Total run time: 13.5 min. Analyte detection and quantification were performed using tandem mass spectrometry (MS/MS) operating in positive ionization mode as previously reported for ZST316 and ZST152 [31].

[2] = Tumour distribution of ZST316 and L-257 after intraperitoneal ZST316 in MDA-MB-231 TNBC xenograft (HPLC-MS/MS); type: in vivo, SCID mice; conditions: for time intra-tumour concentration remained above the IC50 and Ki values for DDAH1 inhibition: estimated
Description: as §1, §2, §3
Control MDA-MB-231 TNBC cell tumours were homogenized with NH4COOH 50 mM (1:4, w:v). The homogenate (90 μL) was spiked with 5 μL of ZST316 and L-257 working solutions prepared in the range of 100–10,000 ng/mL generating seven tumour calibration standards in the range 25–5000 ng/g. The calibration curve included also a blank and a zero blank standard plasma sample (processed with IS). To prepare QC samples, 90 μL of the homogenate was mixed with an appropriate amount of QC working solutions to obtain QC plasma samples at the nominal concentration of 75, 375, and 1250 ng/g.
The procedure was similar to that described for plasma in Section 3.3.2.
as §4

[3] = Stability of ZST316 and L-257 in frozen plasma; type: in vitro ADME, mice; conditions: for Mean found value, Stability −20 °C / Accuracy (%), Stability −20 °C: plasma QC, one month at −20 °C; for Mean found value, Stability −20 °C: n=3; for Accuracy (%), Stability −20 °C: percent of nominal
Description: The stability of ZST316 and L-257 in plasma was assessed by analysing QC samples containing both compounds after prolonged storage in the same conditions of the study samples.
Stability was determined by analysing 3 QCs per concentration level immediately after the preparation, and 3 QCs per concentration level after one month of storage at −20 °C. The analytes were considered stable at each QC concentration when the freshly prepared samples and the stability test samples differed by no more than 15% from the nominal concentrations.

DDAH1 = conditions: cited from earlier work
[4] = acute (single dose) ZST316 30 mg/Kg i.p., 1 h
[5] = acute ZST316 30 mg/Kg i.p., 1 h
[6] = acute ZST316 30 mg/Kg i.p., 8 h
[7] = acute ZST316 30 mg/Kg i.p., 8 h, n=3
[8] = acute ZST316 30 mg/Kg i.p., 24 h
[9] = acute ZST316 30 mg/Kg i.p., approximately estimated due to limited time points
[10] = chronic (five-day) ZST316 30 mg/Kg i.p. daily, 1 h
[11] = chronic (five-day) ZST316 30 mg/Kg i.p. daily, 24 h
[12] = chronic ZST316 30 mg/Kg i.p. daily
[13] = chronic ZST316 30 mg/Kg i.p. daily, day 5, 1 h
[14] = chronic ZST316 30 mg/Kg i.p. daily, day 5, 8 h
[15] = chronic ZST316 30 mg/Kg i.p. daily, day 5, 8 h, n=3
[16] = chronic ZST316 30 mg/Kg i.p. daily, day 5, 24 h
[17] = chronic ZST316 30 mg/Kg i.p. daily, approximately estimated due to limited time points
[18] = range over acute and chronic treatment

Q: What does the source list for COCCNC(N)=NCCC[C@H](N)C(=O)O [L-257]?
A: accumulation in plasma and tumour during chronic treatment ([1]; ZST316 30 mg/Kg i.p. daily for five days, day 5 vs day 1): without accumulation; also recorded: no accumulation; mean plasma concentration [1, 4]: 2.02 µg/mL; Cmax ([1]; acute ZST316 30 mg/Kg i.p.): 8.7 µM; Cmax plasma ([1]; acute ZST316 30 mg/Kg i.p.): 2020 ng/mL; Plasma AUC1–24 h ([1]; acute ZST316 30 mg/Kg i.p.): 0.061; Plasma AUC1–24 h ([1]; acute ZST316 30 mg/Kg i.p. (day 1)): 14.1 µg·h/mL; plasma concentration, individual mice [1, 5]: 2610 ng/mL and 1700 ng/mL and 1760 ng/mL and 11.24 µM and 7.32 µM and 7.58 µM; plasma concentration, individual mice [1, 6]: 272 ng/mL and 382 ng/mL and 2.16 µM and 1.17 µM and 1.65 µM and 502 ng/mL; mean plasma concentration [1, 7]: 385 ng/mL and 1.66 μM; plasma concentration, individual mice [1, 8]: 38 ng/mL and 32.5 ng/mL and 47.8 ng/mL and 0.16 µM and 0.14 µM and 0.21 µM; half-life plasma [1, 9]: 4.2 h; mean plasma concentration [1, 10]: 1.60 µg/mL; mean plasma concentration [1, 11]: 0.06 µg/mL; Cmax [1, 12]: 6.89 µM; Cmax plasma [1, 12]: 1600 ng/mL; Plasma AUC1–24 h [1, 12]: 0.044; Plasma AUC1–24 h ([1]; chronic ZST316 30 mg/Kg i.p. daily (day 5)): 10.3 µg·h/mL; plasma concentration, individual mice [1, 13]: 1600 ng/mL and 1500 ng/mL and 1710 ng/mL and 6.89 µM and 6.46 µM and 7.37 µM; plasma concentration, individual mice [1, 14]: 249 ng/mL and 136 ng/mL and 0.90 µM and 1.07 µM and 0.59 µM and 209 ng/mL; mean plasma concentration [1, 15]: 198 ng/mL and 0.85 μM; plasma concentration, individual mice [1, 16]: 58.8 ng/mL and 95.2 ng/mL and 29.1 ng/mL and 0.25 µM and 0.41 µM and 0.13 µM; half-life plasma [1, 17]: 5.3 h; half-life plasma [1, 18]: 4.2 to 5.3 h; measured concentration in unknown study plasma sample (Figure 2) ([1]; representative chromatogram, sample taken at 1 h after acute treatment (b8)): 1710 ng/mL; mean intra-tumour concentration [2, 4]: 3.5 µg/g; mean intra-tumour concentration ([2]; acute (single dose) ZST316 30 mg/Kg i.p., 24 h): 0.04 µg/g; Cmax tumour ([2]; acute ZST316 30 mg/Kg i.p.): 3.50 μg/g and 15.08 μM; tumour AUC ([2]; acute ZST316 30 mg/Kg i.p.): 23.9 µg·h/g; tumour concentration, individual mice [2, 5]: 3590 ng/g and 2810 ng/g and 4090 ng/g and 15.5 µM and 12.1 µM and 17.6 µM; tumour concentration, individual mice [2, 6]: 225 ng/g and 1060 ng/g and 2.8 µM and 0.97 µM and 4.57 µM and 651 ng/g; mean tumour concentration [2, 7]: 645 ng/g and 2.78 μM; tumour concentration, individual mice [2, 8]: 30.7 ng/g and 33.1 ng/g and 56.1 ng/g and 0.13 µM and 0.14 µM and 0.24 µM; half-life tumour [2, 9]: 3.6 h; time intra-tumour concentration remained above the IC50 and Ki values for DDAH1 inhibition ([2]; after acute ZST316 treatment): 4 h; time intra-tumour concentration remained above the IC50 and Ki values for DDAH1 inhibition ([2]; after chronic ZST316 treatment): 3.5 h; mean intra-tumour concentration [2, 10]: 3.24 µg/g; mean intra-tumour concentration [2, 11]: 0.10 µg/g; Cmax tumour [2, 12]: 3.24 μg/g and 13.96 μM; tumour AUC [2, 12]: 20.3 µg·h/g; tumour concentration, individual mice [2, 13]: 3550 ng/g and 2810 ng/g and 3350 ng/g and 15.29 µM and 12.10 µM and 14.43 µM; tumour concentration, individual mice [2, 14]: 413 ng/g and 403 ng/g and 326 ng/g and 1.78 µM and 1.74 µM and 1.40 µM; mean tumour concentration [2, 15]: 381 ng/g and 1.64 μM; mean tumour concentration [2, 16]: 97 ng/g; tumour concentration, individual mice [2, 16]: 35.5 ng/g and 159 ng/g and < LOQ and 0.15 µM and 0.68 µM and 0.05 µM; mean tumour concentration ([2]; chronic ZST316 30 mg/Kg i.p. daily, day 5, 24 h, n=3): 0.30 µM; half-life tumour [2, 17]: 4.9 h; half-life tumour [2, 18]: 3.6 to 4.9 h; measured concentration in unknown study tumour sample (Figure 3) ([2]; representative chromatogram, sample taken at 24 h after acute treatment (b8)): 30.7 ng/g; stability in frozen plasma ([3]; at least one month at −20 °C): stable; Mean found value, Stability −20 °C ([3]; actual value 15.00 ng/mL): 15.8 ng/mL; Accuracy (%), Stability −20 °C ([3]; actual value 15.00 ng/mL): 105.6%; Mean found value, Stability −20 °C ([3]; actual value 75.00 ng/mL): 75.7 ng/mL; Accuracy (%), Stability −20 °C ([3]; actual value 75.00 ng/mL): 101.0%; Mean found value, Stability −20 °C ([3]; actual value 250.00 ng/mL): 259.5 ng/mL; Accuracy (%), Stability −20 °C ([3]; actual value 250.00 ng/mL): 103.8%; pKi (DDAH1; dotted line in figures): 5.15; Ki expressed as concentration (DDAH1; equivalent of 7 μM): 1.625 µg/mL
